Three compounds from patent US20060265137A1, “Methods to increase the capacity of high content cell-based screening assays” (Cellomics, Inc., priority 2001, published 2006) can be followed below.

One assay deals with NFkB and ERK. Nature of the assay: Primary high content screen, green channel: cytoplasm to nucleus translocation of NFkB and ERK (pooled reporter set). The format is cell-based. The note with it: Swiss 3T3 cells, 30 minutes treatment, ALEXA FLUOR 488 secondary antibodies, versus negative controls, FIG. 5. The text has this: (§1) 1. Cytoplasm to nuclear translocation: (A preferred embodiment of the method is described in detail in U.S. Pat. No. 5,989,835) A nuclear image is acquired and preferably thresholded to create a nuclear mask. A cytoplasmic image is created using either the nuclear image or the fluorescent signals from the fluorescent reporter molecules in the reporter set. Preferably, a cytoplasmic mask is created. Translocation of the fluorescent reporter molecules in an appropriate reporter set(s) between the nucleus and cytoplasm can then be determined by detecting fluorescent signals in the nuclear mask and cytoplasmic mask in the presence and absence of the one or more test compounds.
(§2) In this example, two reporter sets were used, each containing two fluorescent reporter molecules. The first reporter set consisted of ALEXA FLUOR® 488 conjugated secondary antibodies (Molecular Probes, Inc.), which both emit fluorescence detectable in the green channel. These secondary antibodies were used to bind to primary antibodies against extracellular (signal) regulated kinase (ERK) (Cell Signaling Technologies, Inc.) and Nf-kB (Zymed, Inc.). The second reporter set consisted of ALEXA FLUOR® 568 conjugated secondary antibodies (Molecular Probes, Inc.) which both emit fluorescence detectable in the red channel. These secondary antibodies were used to bind to primary antibodies against c-jun and p38.
(§3) In this experiment, the transcription factors under investigation translocate from the cytoplasm to the nucleus upon activation. Therefore, the fluorescent reporter molecules, which indirectly bind to the transcription factors, can be used to monitor the distribution of the transcription factors within the cell. However, each reporter reports on a different cellular event (i.e.: ERK translocation, Nf-kB translocation, c-jun translocation, and p38 translocation).
(§4) Swiss 3T3 cells in EMEM culture medium were plated in 96 well plates, at a plating density of 3,500 cells per well, and allowed to incubate overnight. […]

Another assay deals with p38 and c-jun. Nature of the assay: Primary high content screen, red channel: cytoplasm to nucleus translocation of p38 and c-jun (pooled reporter set). In kind it is cell-based. The note with it: Swiss 3T3 cells, 30 minutes treatment, ALEXA FLUOR 568 secondary antibodies, FIG. 6.
Description: as §1, §2, §3, §4

Regarding `CCCCCCCCCCCCCC(=O)O[C@@H]1[C@@H](C)[C@@]2(O)[C@@H](C=C(CO)C[C@]3(O)C(=O)C(C)=C[C@@H]23)[C@@H]2C(C)(C)[C@]12OC(C)=O` [PMA], in the assay with NFkB and ERK, the “translocation in the green channel (NFkB and ERK; difference between cytoplasm and nuclear localization)” value is “both NFkB and ERK specific translocations can be observed”. For the same compound, in the assay on p38 and c-jun, the “translocation in the red channel (p38 and c-jun)” value (“translocation in the red channel” below) was “increase in translocation for p38 and c-jun”.

As to `COc1ccc(C[C@H]2NC[C@H](O)[C@H]2OC(C)=O)cc1` [anisomysin], the “translocation in the green channel (NFkB and ERK; difference between cytoplasm and nuclear localization)” value in the assay on NFkB and ERK is on record as “no effect on translocation in the green channel over negative controls”. Besides, the “translocation in the red channel” value in the assay with p38 and c-jun was “increase in translocation for p38 and c-jun”.

On to TNF, for which the “translocation in the green channel (NFkB and ERK; difference between cytoplasm and nuclear localization)” value in the assay on NFkB and ERK is “both NFkB and ERK specific translocations can be observed”. Moreover, the “translocation in the red channel” value in the assay on p38 and c-jun is reported as “not”.
